The values that follow come from US20250179078A1, “INHIBITORS OF NLRP3” (PTC THERAPEUTICS, INC., priority 2022, published 2025).

The target in this experiment is T1, NLRP3 (Homo sapiens, UniProt Q96P20).
T1 construct: host or cells: THP-1 cells differentiated with PMA
The experiment is described as follows: IL-1β Secretion Assay (NLRP3-dependent IL1β secretion in THP1 cells). Format: cell-based. As to conditions: PMA-differentiated THP-1 cells; compounds incubated 20 h; 2.5 μM Nigericin 3 h; HTRF IL-1β readout; read-out: IC50 IL-1β Inhibition. In outline:
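THP-1 cells differentiated with 100 ng/mL PMA for 24 h, then given compound (7-point 3-fold series, 1:200 from DMSO) for 20 h in RPMI+5% FBS. NLRP3 activated with 2.5 μM nigericin for 3 h; secreted IL-1β measured by HTRF; IC50 from logistic fit of % inhibition.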

Where only a bound is given, the exact number is not on record here.

T1 sequence (Q96P20 whole entry): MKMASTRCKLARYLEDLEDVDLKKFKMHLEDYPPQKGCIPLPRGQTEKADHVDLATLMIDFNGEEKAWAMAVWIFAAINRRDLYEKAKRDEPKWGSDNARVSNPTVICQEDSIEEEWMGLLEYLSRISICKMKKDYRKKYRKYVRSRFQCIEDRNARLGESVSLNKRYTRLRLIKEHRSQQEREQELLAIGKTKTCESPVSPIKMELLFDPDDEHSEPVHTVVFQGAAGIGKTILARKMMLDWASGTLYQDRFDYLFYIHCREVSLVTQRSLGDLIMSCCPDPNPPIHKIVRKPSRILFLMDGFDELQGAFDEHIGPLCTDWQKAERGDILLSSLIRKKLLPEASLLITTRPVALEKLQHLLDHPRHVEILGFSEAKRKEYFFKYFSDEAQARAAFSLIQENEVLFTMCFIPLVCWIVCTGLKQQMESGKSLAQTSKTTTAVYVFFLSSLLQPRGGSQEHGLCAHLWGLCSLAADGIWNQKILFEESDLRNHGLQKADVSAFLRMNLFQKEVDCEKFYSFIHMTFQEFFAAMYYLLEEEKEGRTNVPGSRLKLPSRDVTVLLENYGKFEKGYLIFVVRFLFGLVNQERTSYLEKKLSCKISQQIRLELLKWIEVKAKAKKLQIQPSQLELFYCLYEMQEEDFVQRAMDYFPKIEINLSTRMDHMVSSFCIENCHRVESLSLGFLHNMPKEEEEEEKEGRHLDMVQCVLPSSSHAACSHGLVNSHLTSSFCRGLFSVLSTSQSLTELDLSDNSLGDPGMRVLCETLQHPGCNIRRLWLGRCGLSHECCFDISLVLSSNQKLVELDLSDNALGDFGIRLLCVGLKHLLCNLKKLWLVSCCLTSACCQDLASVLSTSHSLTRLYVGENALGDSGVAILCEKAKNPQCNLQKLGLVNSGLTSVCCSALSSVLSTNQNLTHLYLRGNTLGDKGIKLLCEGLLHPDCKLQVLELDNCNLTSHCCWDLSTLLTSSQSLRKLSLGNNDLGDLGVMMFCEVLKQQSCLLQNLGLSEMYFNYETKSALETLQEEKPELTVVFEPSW

`COc1ccc(-c2nnc(NC3CCNC3=O)n3cncc23)c(C2CC2)c1` (stereo not drawn) [Compound 320, 3-{[1-(2-cyclopropyl-4-methoxyphenyl)imidazo[1,5-d][1,2,4]triazin-4-yl]amino}pyrrolidin-2-one]: the IC50 was 10 to 100 nM.
Take `CCN1CCC[C@@H](Nc2nnc(-c3ccc(OC)cc3C(F)(F)F)c3cc(C)nn23)C1` [Compound 373, N-[(3R)-1-ethylpiperidin-3-yl]-4-[4-methoxy-2-(trifluoromethyl)phenyl]-2-methylpyrazolo[1,5-d][1,2,4]triazin-7-amine]: the IC50 was below 1 nM.
As for `Cc1cc2c(-c3ccc(C(F)(F)F)cc3C(F)F)nnc(N[C@@H]3CCCN(C)C3)n2n1` [Compound 359, 4-[2-(difluoromethyl)-4-(trifluoromethyl)phenyl]-2-methyl-N-[(3R)-1-methylpiperidin-3-yl]pyrazolo[1,5-d][1,2,4]triazin-7-amine], the IC50 is 1 to 10 nM.
With `CCN1CCC[C@@H](Nc2nnc(-c3ccc(OC)cc3C(F)(F)F)c3c(F)ccn23)C1` [Compound 17, N-[(3R)-1-ethylpiperidin-3-yl]-8-fluoro-1-[4-methoxy-2-(trifluoromethyl)phenyl]pyrrolo[1,2-d][1,2,4]triazin-4-amine], the IC50 was 1 to 10 nM.
Next, `C[C@]1(O)C[C@@H](Nc2nnc(-c3ccc(OC(F)F)cc3OC(F)(F)F)c3cncn23)C1` [Compound 244, (1s,3s)-3-({1-[4-(difluoromethoxy)-2-(trifluoromethoxy)phenyl]imidazo[1,5-d][1,2,4]triazin-4-yl}amino)-1-methylcyclobutan-1-ol]: below 1 nM; `COc1ccc(-c2nnc(N[C@@H]3CCCC[C@H]3O)n3cncc23)c(C(F)(F)C(F)(F)F)c1` [Compound 316, (1R,2R)-2-({1-[4-methoxy-2-(pentafluoroethyl)phenyl]imidazo[1,5-d][1,2,4]triazin-4-yl}amino)cyclohexan-1-ol]: 10 to 100 nM.
Next, `O[C@@H]1COCC[C@H]1Nc1nnc(-c2ccc(C(F)(F)F)cc2C2CC2)c2cncn12` [Compound 334, (3S,4R)-4-({1-[2-cyclopropyl-4-(trifluoromethyl)phenyl]imidazo[1,5-d][1,2,4]triazin-4-yl}amino)oxan-3-ol]: 10 to 100 nM; `O[C@H]1CCCC[C@H]1Nc1nnc(-c2ccc(C(F)(F)F)cc2CC(F)(F)F)c2cncn12` [Compound 401, (1S,2R)-2-({1-[2-(2,2,2-trifluoroethyl)-4-(trifluoromethyl)phenyl]imidazo[1,5-d][1,2,4]triazin-4-yl}amino)cyclohexan-1-ol]: 10 to 100 nM; `OCCN1CCC[C@@H](Nc2nnc(-c3ccc(Br)cc3C(F)(F)F)c3cncn23)C1` [Compound 201, 2-[(3R)-3-({1-[4-bromo-2-(trifluoromethyl)phenyl]imidazo[1,5-d][1,2,4]triazin-4-yl}amino)piperidin-1-yl]ethan-1-ol]: 1 to 10 nM.
In the case of `Oc1cccc(CNc2nnc(-c3ccc(C(F)(F)F)cc3OC(F)F)c3cccn23)c1` [Compound 101, 3-[{{1-[2-(difluoromethoxy)-4-(trifluoromethyl)phenyl]pyrrolo[1,2-d][1,2,4]triazin-4-yl}amino)methyl]phenol], the IC50 was in the range of 1 to 10 nM.
As to `CCN1CCC[C@@H](Nc2nnc(-c3ccc(C(F)(F)F)cc3C(F)(F)F)c3cncn23)C1` [Compound 271, 1-[2,4-bis(trifluoromethyl)phenyl]-N-[(3R)-1-ethylpiperidin-3-yl]imidazo[1,5-d][1,2,4]triazin-4-amine], the IC50 is below 1 nM.
As to `O[C@@H]1CCCCC[C@@H]1Nc1nnc(-c2ccc(C(F)(F)F)cc2CC(F)(F)F)c2cccn12` (racemic) [Compound 126, (1S,2R)-2-({1-[2-(2,2,2-trifluoroethyl)-4-(trifluoromethyl)phenyl]pyrrolo[1,2-d][1,2,4]triazin-4-yl}amino)cycloheptan-1-ol AND (1R,2S)-2-({1-[2-(2,2,2-trifluoroethyl)-4-(trifluoromethyl)phenyl]pyrrolo[1,2-d][1,2,4]triazin-4-yl}amino)cycloheptan-1-ol], the IC50 lay within 1 to 10 nM.
For the compound `COc1ccc(-c2nnc(N[C@@H]3CCCC[C@H]3O)n3cncc23)c(OC(F)F)c1` [Compound 270, (1R,2R)-2-({1-[2-(difluoromethoxy)-4-methoxyphenyl]imidazo[1,5-d][1,2,4]triazin-4-yl}amino)cyclohexan-1-ol], the IC50 fell in the range of 1 to 10 nM.
The same measure for `Cc1cc2c(-c3ccc(C(F)(F)F)cc3OC(F)(F)F)nnc(N[C@H]3C[C@@](C)(O)C3)n2n1` [Compound 3, (1s,3s)-1-methyl-3-({2-methyl-4-[2-(trifluoromethoxy)-4-(trifluoromethyl)phenyl]pyrazolo[1,5-d][1,2,4]triazin-7-yl}amino)cyclobutan-1-ol]: 1 to 10 nM; for `C[C@]1(O)C[C@@H](Nc2nnc(-c3ccc(Br)cc3C(F)(F)F)c3cncn23)C1` [Compound 204, (1s,3s)-3-({1-[4-bromo-2-(trifluoromethyl)phenyl]imidazo[1,5-d][1,2,4]triazin-4-yl}amino)-1-methylcyclobutan-1-ol]: 1 to 10 nM.
The same measure for `COc1ccc(-c2nnc(NC3CCNC3=O)n3cccc23)c(OC(F)F)c1` (stereo not drawn) [Compound 174, 3-({1-[2-(difluoromethoxy)-4-methoxyphenyl]pyrrolo[1,2-d][1,2,4]triazin-4-yl}amino)pyrrolidin-2-one]: 10 to 100 nM; for `COc1ccc(-c2nnc(N[C@H]3C[C@@](C)(O)C3)n3cccc23)c(C(F)(F)F)c1` [Compound 71, (1s,3s)-3-({1-[4-methoxy-2-(trifluoromethyl)phenyl]pyrrolo[1,2-d][1,2,4]triazin-4-yl}amino)-1-methylcyclobutan-1-ol]: 1 to 10 nM; for `OCCN1CCC[C@@H](Nc2nnc(-c3ccc(C(F)(F)F)cc3C(F)(F)F)c3cncn23)C1` [Compound 253, 2-[(3R)-3-({1-[2,4-bis(trifluoromethyl)phenyl]imidazo[1,5-d][1,2,4]triazin-4-yl}amino)piperidin-1-yl]ethan-1-ol]: 1 to 10 nM.
Take `OCCN1CCC[C@@H](Nc2nnc(-c3ccc(C4CC4)cc3OC(F)F)c3cncn23)C1` [Compound 185, 2-[(3R)-3-({1-[4-cyclopropyl-2-(difluoromethoxy)phenyl]imidazo[1,5-d][1,2,4]triazin-4-yl}amino)piperidin-1-yl]ethan-1-ol]: the IC50 is 1 to 10 nM.
`CN1CCC[C@@H](Nc2nnc(-c3ccc(Cl)cc3OC(F)F)c3cncn23)C1` [Compound 190, 1-[4-chloro-2-(difluoromethoxy)phenyl]-N-[(3R)-1-methylpiperidin-3-yl]imidazo[1,5-d][1,2,4]triazin-4-amine]: the IC50 is below 1 nM.
On to `Cc1cc2c(-c3ccc(C(F)(F)F)cc3CC(F)(F)F)nnc(N[C@H]3C[C@@](C)(O)C3)n2n1` [Compound 388, (1s,3s)-1-methyl-3-({2-methyl-4-[2-(2,2,2-trifluoroethyl)-4-(trifluoromethyl)phenyl]pyrazolo[1,5-d][1,2,4]triazin-7-yl}amino)cyclobutan-1-ol], for which the IC50 was in the range of 1 to 10 nM.
Turning to `C[C@]1(O)C[C@@H](Nc2nnc(-c3ccc(Cl)cc3C(F)(F)F)c3cncn23)C1` [Compound 298, (1s,3s)-3-({1-[4-chloro-2-(trifluoromethyl)phenyl]imidazo[1,5-d][1,2,4]triazin-4-yl}amino)-1-methylcyclobutan-1-ol], the IC50 was 1 to 10 nM.
On to `O[C@@H]1COCC[C@H]1Nc1nnc(-c2ccc(OC(F)F)cc2OC(F)(F)F)c2cncn12` [Compound 331, (3S,4R)-4-({1-[4-(difluoromethoxy)-2-(trifluoromethoxy)phenyl]imidazo[1,5-d][1,2,4]triazin-4-yl}amino)oxan-3-ol], for which the IC50 fell in the range of 10 to 100 nM.
For `COc1ccc(-c2nnc(N[C@H]3C[C@@](C)(O)C3)n3cncc23)c(OC(F)(F)F)c1` [Compound 219, (1s,3s)-3-({1-[4-methoxy-2-(trifluoromethoxy)phenyl]imidazo[1,5-d][1,2,4]triazin-4-yl}amino)-1-methylcyclobutan-1-ol], the IC50 was 1 to 10 nM.

As usually defined, the IC50 is the point on the concentration scale where inhibition reaches its midpoint.
